Counter-ions that a name gives are not always drawn.

For 26 molecules, IC50 results are on record in patent US9907800B2, “Kinase inhibitors and method of treating cancer” (University Health Network, priority 2010, dated 2018).

One test addresses Aurora B (Homo sapiens (Human), UniProt Q96GD4). Put plainly: Aurora B inhibition assay (Z-Lyte). The test is classed as biochemical. To be noted: read-out: Aurora B IC50 Ranges.
Another test has as its target human PLK4 (Homo sapiens (Human), UniProt O00444). Description: PLK4 inhibition assay (indirect ELISA). To be noted: read-out: PLK4 IC50 Ranges. The test is classed as biochemical. For orientation: ELISA stands for enzyme-linked immunosorbent assay.

Chain of Aurora B (Q96GD4 whole entry): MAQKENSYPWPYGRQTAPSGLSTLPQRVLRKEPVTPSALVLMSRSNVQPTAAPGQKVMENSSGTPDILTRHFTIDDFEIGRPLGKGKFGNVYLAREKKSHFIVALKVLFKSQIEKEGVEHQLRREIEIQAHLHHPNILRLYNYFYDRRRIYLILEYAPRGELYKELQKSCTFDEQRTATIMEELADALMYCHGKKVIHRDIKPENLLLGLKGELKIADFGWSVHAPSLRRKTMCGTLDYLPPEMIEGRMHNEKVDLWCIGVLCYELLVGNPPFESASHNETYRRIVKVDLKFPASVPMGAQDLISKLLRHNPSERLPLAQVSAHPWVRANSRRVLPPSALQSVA
Chain of human PLK4 (O00444 1-391): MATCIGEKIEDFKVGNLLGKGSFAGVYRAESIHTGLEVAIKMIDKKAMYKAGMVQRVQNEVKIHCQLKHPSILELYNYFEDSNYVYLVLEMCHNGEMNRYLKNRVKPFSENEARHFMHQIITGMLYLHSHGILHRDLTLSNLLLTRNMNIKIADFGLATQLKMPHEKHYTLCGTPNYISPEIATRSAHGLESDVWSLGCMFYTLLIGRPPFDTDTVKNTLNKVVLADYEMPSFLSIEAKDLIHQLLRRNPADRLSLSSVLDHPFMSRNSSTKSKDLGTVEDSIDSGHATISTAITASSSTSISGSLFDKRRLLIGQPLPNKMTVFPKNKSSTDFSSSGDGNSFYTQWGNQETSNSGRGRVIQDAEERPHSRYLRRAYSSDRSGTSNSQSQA
Experimental for Aurora B: Aurora B inhibition was determined using the Z-Lyte assay kit from Invitrogen. […] The % inhibition values were determined according to the manufacturer's directions and IC50 values were obtained using a non-linear 4 point logistic curve fit (XLfit4, IDBS)
Experimental for human PLK4: PLK4 activity was measured using an indirect ELISA detection system. […] The colourimetric reaction was allowed to continue for 5 minutes, followed by addition of stop solution (0.5 N sulphuric acid), and quantified by detection at 450 nm with either a monochromatic or filter based plate reader (Molecular Devices M5 or Beckman DTX880, respectively).
Compounds were pre-incubated in the presence of enzyme for 15 minutes prior to addition of ATP and the activity remaining quantified using the above described activity assay. […] The IC50 value was determined using a non-linear 4 point logistic curve fit (XLfit4, IDBS) with the formula; (A+(B/(1+((x/C)^D)))), where A=background value, B=range, C=inflection point, D=curve fit parameter.

For `COc1ccc2c(c1)[C@]1(C[C@H]1c1ccc3c(/C=C/c4ccc(CN5CCOCC5)cc4)n[nH]c3c1)C(=O)N2C` [Example A102, (1R,2S)-(E)-5′-methoxy-1′-methyl-2-(3-(4-(morpholinomethyl)styryl)-1H-indazol-6-yl)spiro[cyclopropane-1,3′-indolin]-2′-one hydrochloride], at Aurora B, the IC50 (usually the point on the concentration scale where inhibition reaches its midpoint) was less than 100 nM.

Turning to `COc1ccc2c(c1)[C@]1(C[C@H]1c1ccc3c(-c4csc(CN5CCOCC5)c4)n[nH]c3c1)C(=O)N2` [Example A125, (1R,2S)-5′-methoxy-2-(3-(5-(morpholinomethyl)thiophen-3-yl)-1H-indazol-6-yl)spiro[cyclopropane-1,3′-indolin]-2′-one 2,2,2-trifluoroacetate], at human PLK4, the half-maximal inhibitory concentration (IC50) was less than 100 nM.

On to `COc1cc2c(cc1OC)[C@]1(C[C@H]1c1ccc3c(-c4cccc(CN5CCOCC5)c4)n[nH]c3c1)C(=O)N2` (relative stereo) [Example A143, (1R*,2S*)-5′,6′-dimethoxy-2-(3-(3-(morpholinomethyl)phenyl)-1H-indazol-6-yl)spiro[cyclopropane-1,3′-indolin]-2′-one 2,2,2-trifluoroacetate], for which the IC50 on human PLK4 was more than 1000 nM.

With `COc1ccc2c(c1)[C@]1(C[C@H]1c1ccc3c(-c4ccc(OCCn5ccnc5)cc4)n[nH]c3c1)C(=O)N2` [Example A108, (1R,2S)-2-(3-(4-(2-(1H-imidazol-1-yl)ethoxy)phenyl)-1H-indazol-6-yl)-5′-methoxyspiro[cyclopropane-1,3′-indolin]-2′-one 2,2,2-trifluoroacetate], the IC50 on human PLK4 and on Aurora B was less than 100 nM in each case.

As for `O=C1Nc2ccccc2[C@]12C[C@H]2c1ccc2c(/C=C/c3ccc(CCN4CCOCC4)cc3)n[nH]c2c1` [Example A205, (1R,2S)-(E)-2-(3-(4-(2-morpholinoethyl)styryl)-1H-indazol-6-yl)spiro[cyclopropane-1,3′-indolin]-2′-one 2,2,2-trifluoroacetate], the half-maximal inhibitory concentration (IC50) on human PLK4 and at Aurora B was less than 100 nM in each case.

Turning to `COc1ccc2c(c1)[C@]1(C[C@H]1c1ccc3c(/C=C/c4cc(F)c(CN(C)C)c(F)c4)n[nH]c3c1)C(=O)N2` [Example A216, (1R,2S)-(E)-2-(3-(4-((dimethylamino)methyl)-3,5-difluorostyryl)-1H-indazol-6-yl)-5′-methoxyspiro[cyclopropane-1,3′-indolin]-2′-one 2,2,2-trifluoroacetate], the 50% inhibitory concentration (IC50) at human PLK4 and at Aurora B was less than 100 nM each time.

On to `COc1ccc2c(c1)[C@]1(C[C@H]1c1ccc3c(/C=C/c4ccc(CN5CCCC5)cc4)n[nH]c3c1)C(=O)N2` [Example A83, (1R,2S)-(E)-5′-methoxy-2-(3-(4-(pyrrolidin-1-ylmethyl)styryl)-1H-indazol-6-yl)spiro[cyclopropane-1,3′-indolin]-2′-one 2,2,2-trifluoroacetate], for which the half-inhibitory concentration (IC50) on human PLK4 and on Aurora B was less than 100 nM each time.

As for `COc1ccc2c(c1)[C@]1(C[C@H]1c1ccc3c(/C=C/c4cccnc4)n[nH]c3c1)C(=O)N2` [Example A197, (1R,2S)-5′-methoxy-2-(3-((E)-2-(pyridin-3-yl)vinyl)-1H-indazol-6-yl)spiro[cyclopropane-1,3′-indolin]-2′-one], the IC50 at human PLK4 and on Aurora B was less than 100 nM throughout.

Consider `O=C1Nc2ccccc2[C@]12C[C@H]2c1ccc2c(/C=C/c3ccccn3)n[nH]c2c1` (relative stereo) [Example A53, (1R*,2S*)-2-(3-((E)-2-(pyridin-2-yl)vinyl)-1H-indazol-6-yl)spiro[cyclopropane-1,3′-indolin]-2′-one], for which the IC50 at human PLK4 and on Aurora B was less than 100 nM throughout.

Turning to `CN1C(=O)[C@@]2(C[C@H]2c2ccc3c(/C=C/c4ccc(CN5CCOCC5)cc4)n[nH]c3c2)c2ccccc21` (relative stereo) [Example A87, (1R*,2S*)-(E)-1′-methyl-2-(3-(4-(morpholinomethyl)styryl)-1H-indazol-6-yl)spiro[cyclopropane-1,3′-indolin]-2′-one 2,2,2-trifluoroacetate], the concentration for half-maximal inhibition (IC50) on human PLK4 and at Aurora B was less than 100 nM each time.

Consider `COc1ccc2c(c1)[C@]1(C[C@H]1c1ccc3c(-c4ccc(N5CCNCC5)cc4)n[nH]c3c1)C(=O)N2C` [Example A101, (1R,2S)-5′-methoxy-1′-methyl-2-(3-(4-(piperazin-1-yl)phenyl)-1H-indazol-6-yl)spiro[cyclopropane-1,3′-indolin]-2′-one 2,2,2-trifluoroacetate], for which the concentration for half-maximal inhibition (IC50) on human PLK4 and on Aurora B was less than 100 nM throughout.

Regarding `COc1ccc2c(c1)[C@]1(C[C@H]1c1ccc3c(-c4ccc(CCN5CCOCC5)cc4)n[nH]c3c1)C(=O)N2` (relative stereo) [Example A159, (1R*,2S*)-5′-methoxy-2-(3-(4-(2-morpholinoethyl)phenyl)-1H-indazol-6-yl)spiro[cyclopropane-1,3′-indolin]-2′-one 2,2,2-trifluoroacetate], the IC50 at human PLK4 and on Aurora B was less than 100 nM each time.

Regarding `CN1C(=O)[C@@]2(C[C@H]2c2ccc3c(/C=C/c4ccc(CN5CCCCC5)cc4)n[nH]c3c2)c2ccccc21` [Example A94, (1R,2S)-(E)-1′-methyl-2-(3-(4-(piperidin-1-ylmethyl)styryl)-1H-indazol-6-yl)spiro[cyclopropane-1,3′-indolin]-2′-one hydrochloride], the half-maximal inhibitory concentration (IC50) on human PLK4 and on Aurora B was less than 100 nM each time.

As to `COc1ccc2c(c1)[C@@]1(C[C@@H]1c1ccc3c(I)n[nH]c3c1)C(=O)N2` [Example A8, (1S,2R)-2-(3-iodo-1H-indazol-6-yl)-5′-methoxyspiro[cyclopropane-1,3′-indolin]-2′-one], the concentration for half-maximal inhibition (IC50) on human PLK4 is more than 1000 nM.

On to `O=C1Nc2ccccc2[C@]12C[C@H]2c1ccc2c(I)n[nH]c2c1` (relative stereo) [Example A9, (1R*,2S*)-2-(3-iodo-1H-indazol-6-yl)spiro[cyclopropane-1,3′-indolin]-2′-one], for which the IC50 on Aurora B lay within 100 to 1000 nM.

For the molecule `O=C1Nc2ccccc2[C@]12C[C@H]2c1ccc2[nH]ncc2c1` (relative stereo) [Example A1, (1R*,2S*)-2-(1H-indazol-5-yl)spiro[cyclopropane-1,3′-indolin]-2′-one], the 50% inhibitory concentration (IC50) at human PLK4 was more than 1000 nM.

`O=C1Nc2ccccc2[C@]12C[C@H]2c1ccc2c(/C=C/c3ccc4c(c3)CNCCO4)n[nH]c2c1` [Example A113, (1R,2S)-2-(3-((E)-2-(2,3,4,5-tetrahydrobenzo[f][1,4]oxazepin-7-yl)vinyl)-1H-indazol-6-yl)spiro[cyclopropane-1,3′-indolin]-2′-one 2,2,2-trifluoroacetate]: the half-maximal inhibitory concentration (IC50) on human PLK4 was less than 100 nM.

As to `COc1ccc2c(c1)[C@]1(C[C@H]1c1ccc3c(/C=C/c4ccc(CCN5CCOCC5)cc4)n[nH]c3c1)C(=O)N2` [Example A177, (1R,2S)-(E)-5′-methoxy-2-(3-(4-(2-morpholinoethyl)styryl)-1H-indazol-6-yl)spiro[cyclopropane-1,3′-indolin]-2′-one 2,2,2-trifluoroacetate], the half-maximal inhibitory concentration (IC50) on Aurora B was less than 100 nM.

As for `O=C1Nc2ccccc2[C@]12C[C@H]2c1ccc2c(I)n[nH]c2c1` [Example A10, (1R,2S)-2-(3-iodo-1H-indazol-6-yl)spiro[cyclopropane-1,3′-indolin]-2′-one], at Aurora B, the IC50 fell in the range of 100 to 1000 nM.

Turning to `CN1C(=O)[C@@]2(C[C@H]2c2ccc3c(/C=C/c4ccc(CN5CCCC5)cc4)n[nH]c3c2)c2ccccc21` [Example A115, (1R,2S)-(E)-1′-methyl-2-(3-(4-(pyrrolidin-1-ylmethyl)styryl)-1H-indazol-6-yl)spiro[cyclopropane-1,3′-indolin]-2′-one 2,2,2-trifluoroacetate], the IC50 on human PLK4 was less than 100 nM.

With `C/C(=C\c1ccc(CN2CCOCC2)cc1)c1n[nH]c2cc([C@@H]3C[C@@]34C(=O)Nc3ccccc34)ccc12` [Example A114, (1R,2S)-2-(3-((E)-1-(4-(morpholinomethyl)phenyl)prop-1-en-2-yl)-1H-indazol-6-yl)spiro[cyclopropane-1,3′-indolin]-2′-one 2,2,2-trifluoroacetate], the IC50 on human PLK4 was less than 100 nM.

Regarding `COc1cc2c(cc1OC)[C@]1(C[C@H]1c1ccc3c(-c4ccc(N5CCN(C)CC5)cc4)n[nH]c3c1)C(=O)N2` (relative stereo) [Example A144, (1R*,2S*)-5′,6′-dimethoxy-2-(3-(4-(4-methylpiperazin-1-yl)phenyl)-1H-indazol-6-yl)spiro[cyclopropane-1,3′-indolin]-2′-one 2,2,2-trifluoroacetate], the 50% inhibitory concentration (IC50) at human PLK4 was 100 to 1000 nM.

For `CN1C(=O)[C@@]2(C[C@H]2c2ccc3c(-c4ccc(N5CCNCC5)cc4)n[nH]c3c2)c2ccccc21` (relative stereo) [Example A88, (1R*,2S*)-1′-methyl-2-(3-(4-(piperazin-1-yl)phenyl)-1H-indazol-6-yl)spiro[cyclopropane-1,3′-indolin]-2′-one 2,2,2-trifluoroacetate], the IC50 at human PLK4 lay in the range of 100 to 1000 nM.

For the molecule `COc1ccc2c(c1)[C@]1(C[C@H]1c1ccc3c(-c4cccc(CCO)c4)n[nH]c3c1)C(=O)N2` (relative stereo) [Example A46, (1R*,2S*)-2-(3-(3-(2-hydroxyethyl)phenyl)-1H-indazol-6-yl)-5′-methoxy spiro[cyclopropane-1,3′-indolin]-2′-one], the IC50 at human PLK4 is less than 100 nM.

In the case of `COc1ccc2c(c1)[C@]1(C[C@H]1c1ccc3c(-c4ccc(C5(F)CCN(C)CC5)cc4)n[nH]c3c1)C(=O)N2` [Example A124, (1R,2S)-2-(3-(4-(4-fluoro-1-methylpiperidin-4-yl)phenyl)-1H-indazol-6-yl)-5′-methoxyspiro[cyclopropane-1,3′-indolin]-2′-one 2,2,2-trifluoroacetate], on human PLK4, the IC50 was less than 100 nM.

`O=C1Nc2ccccc2[C@]12C[C@H]2c1ccc2c(/C=C/c3csc(CN4CCOCC4)n3)n[nH]c2c1` [Example A77, (1R,2S)-2-(3-((E)-2-(2-(morpholinomethyl)thiazol-4-yl)vinyl)-1H-indazol-6-yl)spiro[cyclopropane-1,3′-indolin]-2′-one 2,2,2-trifluoroacetate salt]: on human PLK4, the IC50 was less than 100 nM.
